The structures appear in SMILES notation. Entries after “also recorded” stand apart in the source; their conditions may differ.

Experiment [1] has as its system Poly(GP). In words: Poly(GP) by immunoassay in patient-derived iPSCs. The experiment is classed as cell-based, human. The conditions noted are these: for Poly(GP) levels: iPSCs from c9ALS patients. Here is the method:
(§1) iPSCs were treated for 4 days in Matrigel (356234, Corning) coated plates with mTeSR™1 feeder-free medium ([…] Technologies; Catalog #85850). Cells were treated in 6-well plates on day 1 and 3 with compounds diluted in 0.1% final DMSO.
(§2) Measuring Poly(GP) Levels by Electrochemiluminescence. LCLs were seeded in T-25 flash at 400,000 cells/mL in 5 mL of growth medium. After overnight incubation, the cells were treated with compound or ASO for 4 days at 37° C. After the treatment period, the cells were pelleted, and total protein was extracted by incubating with CoIP2 Buffer (50 mM Tris-HCL, pH 7.4, 300 mM NaCl, 5 mM EDTA, 1% (v/v) Triton-X 100, 2% (w/v) sodium dodecyl sulfate, and 0.01% (v/v) protease and phosphatase inhibitors) on ice for 5 min and then sonication (3 s intervals at 35% power for ˜40 s). Detergent was then removed using Pierce™ Detergent Removal Spin Columns following manufacturer's protocol. Protein concentration was measured by Pierce™ BCA Protein Assay Kit.
(§3) Levels of poly(GP) were measured using Meso Scale Discovery MSD Gold 96-well Streptavidin SECTOR plates. Both capture and detection antibodies were generated using an anti-poly(GP) antibody kindly provided by the Target ALS Foundation. To serve as the capture antibody, the poly(GP) antibody was conjugated to biotin using EZ-Link™ Sulfo-NHS-LC-Biotin (Thermo Fisher) as per the manufacturer's protocol. To serve as the detection antibody, the poly(GP) antibody was sulfo-tagged using MSD GOLD SULFO-TAG NHS-Ester (Meso Scale Discovery) as per the manufacturer's protocol. The conjugated antibodies were desalted with 40K Zeba™ Spin Desalting Columns (Thermo Fisher Scientific), and their concentrations were determined by Pierce™ BCA Protein Assay Kit.
Briefly, the plates were incubated with 2 μg/ml of anti-poly(GP)-biotin antibody at 4° C. overnight. […] After washing with 150 μL of 1×TBST three times, 1×MSD GOLD Read Buffer was added to each well, and electrochemiluminescence was measured using a SECTOR Imager (MSD). […]

Experiment [2] has as its system WT C9ORF72 protein. In words: C9ORF72 expression by Western blotting. Format: cell-based, human. The following applies: Western blot, relative to β-actin. Here is the method: Measuring C9ORF72 Expression Level by Western Blotting. Samples analyzed by Western blot were prepared as described in “Measuring poly(GP) Levels by Electrochemiluminescence”. Approximately 20 μg of total protein was separated on a 10% SDS-polyacrylamide gel, and then transferred to a PVDF membrane. The membrane was washed with 1×TBS and then blocked in 5% milk in 1×TBST for 1 h at room temperature. After washing with 1×TBST, C9orf72 antibody (GeneTex, GTX119776; 1:3000 dilution) was added in 1×TBST containing 5% milk overnight at 4° C. […] The membrane was washed with 1×TBST, and protein expression was quantified using SuperSignal West Pico Chemiluminescent Substrate (Pierce Biotechnology) per the manufacturer's protocol.
To quantify β-actin expression, the membrane was stripped using 1× Stripping Buffer (200 mM glycine, pH 2.2 and 0.1% SDS) followed by washing in 1×TBST. […] The membrane was washed with 1×TBST and incubated with 1:10,000 anti-rabbit IgG horseradish-peroxidase secondary antibody conjugate (Cell Signaling Technology) in 1×TBST containing 5% (w/v) milk for 1 h at room temperature. β-actin protein expression was quantified using SuperSignal West Pico Chemiluminescent Substrate (Pierce Biotechnology) per the manufacturer's protocol. […].
(In general: In western blotting, separated proteins are transferred to a membrane and probed.)

Experiment [3] deals with r(G4C2)8 and hnRNP H1 complex. Nature of the experiment: TR-FRET hnRNP H binding assay. Format: biochemical. The following applies: inhibiting r(G4C2)8 and hnRNP H1 complex formation; 7 in the absence of Rnase L. As to the method:
TR-FRET hnRNP H Binding Assay. TR-FRET assays were performed as previously described (12). The mixture was incubated for 15 min at room temperature and then hnRNP H1-His6 was added. After an additional 15 min incubation, streptavidin-XL665 (HTRF, Cisbio Bioassays) and anti-His6-Tb (HTRF, Cisbio Bioassays) were added to a final concentration of 40 nM and 0.44 ng/μL, respectively. After incubating for 1 h, TR-FRET was measured as previously described (12).
Background: In TR-FRET formats the signal depends on donor and acceptor labels being close together.

In experiment [4] the test system is C9orf72 intron 1 harboring r(G4C2)exp. Nature of the experiment: C9orf72 intron 1 RT-qPCR in patient-derived iPSCs. The experiment is classed as cell-based, human. Here is the method: as §1
Measuring Levels of C9orf72 and C9orf72 Variants by RT-qPCR. LCLs were seeded in 6-well plate (˜10^6 cells in 2 mL of growth medium) and incubated overnight at 37° C. Cells were then treated with various concentrations of compound for 24 h or with G4C2-ASO and Control-ASO (100 nM), delivered by transfection with Lipofectamine RNAiMax. RNA was extracted as described above and the expression of C9orf72 variants was determined by RT-qPCR. For iPSC and iPSC-derived motor neuron cell line, the cells were seeded into Matrigel-coated 6-well plate to ˜60% confluence before treated with 3 μM C9orf72-ASO or Control-ASO and various concentrations of compound for 1 to 2 weeks. For compound treatment well, medium change was performed with fresh compound every 3-4 days. RNA was extracted as described above and the expression of C9orf72 variants was determined by RT-qPCR.
Background: Quantitative PCR measures a nucleic acid by following its amplification.

Experiment [5] relates to Poly(GP). In words: Poly(GP) by electrochemiluminescent immunoassay in patient-derived LCLs. Format: cell-based, human. As to the method:
as §2, §3
Briefly, the plates were incubated with 2 μg/ml of anti-poly(GP)-biotin antibody at 4° C. overnight. The wells were then washed three times with 1×TBST [1×Tris-buffered saline (TBS) containing 0.1% (v/v) Tween-20] and blocked with 3% BSA in 1×TBST for 1 h at room temperature (with shaking). The blocking solution was removed, and the wells were washed 3 times with 150 μL of 1×TBST. […] After washing with 150 μL of 1×TBST three times, 1×MSD GOLD Read Buffer was added to each well, and electrochemiluminescence was measured using a SECTOR Imager (MSD). […]

The IC50 is the concentration at which inhibition is half-maximal. High values mean lower potency, low ones higher potency. On to `Cc1c2ccncc2c(C)c2c1[nH]c1ccc(OCCOCCOCCNCCOCCOCCOc3ccc4[nH]c5c(C)c6ccncc6c(C)c5c4c3)cc12` [Compound 3], for which the “Poly(GP) levels” value in experiment [1] is on record as “reduced Poly(GP) levels dose-dependently”. Further, the “WT C9ORF72 protein levels” value in experiment [2] is “no effect”. This compound showed an IC50 in experiment [3] of 900 ± 100 nM. Besides, in experiment [4] (patient-derived iPSCs), the “C9orf72 intron 1 levels” value was “no effect”. The “Poly(GP) expression” value in experiment [5] (5, 50 and 500 nM for 4 days) is “dose-dependent decrease”.

With `CCOC(=O)C1=C(Nc2ccccc2)S/C(=C\c2ccc(OCCOCCOCCOCCNC(=O)CCC(=O)N(CCOCCOCCOc3ccc4[nH]c5c(C)c6ccncc6c(C)c5c4c3)CCOCCOCCOc3ccc4[nH]c5c(C)c6ccncc6c(C)c5c4c3)c(O)c2)C1=O` [Compound 7], the “potency and duration of activity for reducing Poly(GP) abundance compared to parent compound 3” value in experiment [1] was “significant increase in potency and a prolonged period of activity; also recorded: significant (P<0.05) increase in potency and a prolonged duration of activity”. In addition, the “Poly(GP) levels” value in experiment [1] is “significant reduction”. In experiment [2], the “WT C9ORF72 protein levels” value is reported as “unchanged”. The compound also came in with an IC50 in experiment [3] of 2400 ± 100 nM. The “reduction of r(G4C2)exp-containing intron 1 levels” value in experiment [4] (50 nM) was determined as 45±11%; in experiment [4] (500 nM), 64±10%. For the same compound, in experiment [5] (500 nM), the “reduction of Poly(GP) levels” value turned out to be 71±11%. Further, the “increase in potency over parent compound 3” value in experiment [5] (Poly(GP) in LCLs) is listed as 5 fold.

Source of the values: patent US20230381170A1, “METHOD FOR TREATING ALS/FTD THROUGH DEGRADATION OF RNA REPEAT EXPANSION” (University of Florida Research Foundation, Incorporated, priority 2020, published 2023).
